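Growth conditions: 96-well plates. Treatment: test compound, 48 hours, 5 concentrations. Analysis: linear interpolation between bracketing concentrations; unreached endpoints set to highest concentration. GI50 = concentration required for 50% inhibition of growth.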 Calls of active or inactive are those of the source. No stated cut-off is given here; in the data, active = GI50 up to about 1.1 µM and inactive = higher.
Columns and labels:
Assay in all cases: growth of human tumour cells (NCI), 48 h
[1] = test system: 786-0
[2] = test system: A498
[3] = test system: A549
[4] = test system: EKVX
[5] = test system: HCT-116
[6] = test system: HOP-62
[7] = test system: KM12
[8] = test system: MOLT-4
[9] = test system: Malme-3M
[10] = test system: RPMI-8226
[11] = test system: SF-295
[12] = test system: SF-539
[13] = test system: SK-MEL-2
[14] = test system: SR
[15] = test system: TK-10
[16] = test system: U-251
[17] = test system: UACC-62

SMILES | GI50 [1] | GI50 [2] | GI50 [3] | GI50 [4] | GI50 [5] | GI50 [6] | GI50 [7] | GI50 [8] | GI50 [9] | GI50 [10] | GI50 [11] | GI50 [12] | GI50 [13] | GI50 [14] | GI50 [15] | GI50 [16] | GI50 [17]
N/N=C(/C(=O)Nc1cccc(Cl)c1)C(C(=O)c1ccc(O)cc1O)C1OC(=O)c2ccccc21 (stereo not drawn) | > 100 µM (inactive) | 25.5 µM (inactive) | > 100 µM (inactive) | > 100 µM (inactive) | > 100 µM (inactive) | > 100 µM (inactive) | > 100 µM (inactive) | 31.8 µM (inactive) | > 100 µM (inactive) | 90.6 µM (inactive) | 85.9 µM (inactive) | > 100 µM (inactive) | > 100 µM (inactive) | 40.4 µM (inactive) | > 100 µM (inactive) | 46.9 µM (inactive) | 52.8 µM (inactive)
Cc1cc(O)nc(NNC(C#N)c2c(O)ccc3ccccc23)n1 (stereo not drawn) | 3.52 µM (inactive) |  | 2.9 µM (inactive) |  | 2.43 µM (inactive) | 6.5 µM (inactive) | 4.29 µM (inactive) | 2.34 µM (inactive) | 7.55 µM (inactive) | 3.72 µM (inactive) | 4.74 µM (inactive) | 3.85 µM (inactive) | 12.2 µM (inactive) | 2.7 µM (inactive) | 9.06 µM (inactive) | 2.91 µM (inactive) | 2.87 µM (inactive)
COc1ccc(CNc2cc(OC)c(OC)c(OC)c2)cc1 | 12.2 µM (inactive) | 9.08 µM (inactive) | 6.11 µM (inactive) | 14.6 µM (inactive) | 3.37 µM (inactive) | 5.57 µM (inactive) | 2.25 µM (inactive) | 3.98 µM (inactive) | 7.03 µM (inactive) | 4.18 µM (inactive) | 4.18 µM (inactive) | 6.21 µM (inactive) | 2.72 µM (inactive) | 3.25 µM (inactive) |  | 3.78 µM (inactive) | 3.32 µM (inactive)
O=C(NC12CC3CC(CC(C3)C1)C2)C(=O)c1c[nH]c2ccccc12 | 13.1 µM (inactive) |  | 16.3 µM (inactive) | 17.6 µM (inactive) | 14.7 µM (inactive) | 19.1 µM (inactive) | 13.9 µM (inactive) | 12.2 µM (inactive) | 15 µM (inactive) | 12.2 µM (inactive) | 10.2 µM (inactive) | 13.6 µM (inactive) | 17.9 µM (inactive) | 17.8 µM (inactive) | 27 µM (inactive) | 13.5 µM (inactive) | 13.4 µM (inactive)
Cc1cc2occ(C)c(=O)c2c2c1OC(C)(C)S2 | > 100 µM (inactive) |  | > 100 µM (inactive) | > 100 µM (inactive) | > 100 µM (inactive) | > 100 µM (inactive) | > 100 µM (inactive) | 37.3 µM (inactive) | > 100 µM (inactive) | 82.4 µM (inactive) | > 100 µM (inactive) | > 100 µM (inactive) | > 100 µM (inactive) | 65.9 µM (inactive) | > 100 µM (inactive) | > 100 µM (inactive) | > 100 µM (inactive)
CCOC(=O)CC(NC(=O)c1nc[nH]c1[N+](=O)[O-])C(=O)OCC (stereo not drawn) | 52 µM (inactive) | 61.7 µM (inactive) | 60.1 µM (inactive) | 50.1 µM (inactive) | 43.4 µM (inactive) | 46.7 µM (inactive) | 65.8 µM (inactive) | 43.1 µM (inactive) | > 100 µM (inactive) | 29.2 µM (inactive) | 33.5 µM (inactive) | 59.6 µM (inactive) | 92.7 µM (inactive) | 44.3 µM (inactive) | 24 µM (inactive) | 15.3 µM (inactive) | 66.1 µM (inactive)
COc1cc2c(c(OC)c1OC)-c1ccc(SC)c(=O)cc1[C@@H](NCc1cccc(C#N)c1)CC2 | 0.0332 µM (active) | 0.0161 µM (active) | 0.0345 µM (active) | 0.0973 µM (active) | 0.0173 µM (active) | 0.0334 µM (active) | 0.00528 µM (active) | 0.0328 µM (active) | 0.0232 µM (active) | 0.0345 µM (active) | 0.0207 µM (active) | 0.014 µM (active) | 0.0304 µM (active) | 0.00414 µM (active) | 0.0841 µM (active) | 0.0178 µM (active) | 0.00668 µM (active)
COc1ccc2c(=O)c([Se]c3coc4cc(OC)ccc4c3=O)coc2c1 | 44.5 µM (inactive) | 57.3 µM (inactive) | 32.6 µM (inactive) | 46.8 µM (inactive) | 19.8 µM (inactive) | > 100 µM (inactive) | 41.1 µM (inactive) | 51.8 µM (inactive) | 34.3 µM (inactive) | > 100 µM (inactive) | 24.7 µM (inactive) | 69 µM (inactive) | > 100 µM (inactive) | 44.1 µM (inactive) | > 100 µM (inactive) | 42.8 µM (inactive) | > 100 µM (inactive)
O=C1CCN2CCC(=O)c3c2c(cc2ccccc32)N1 | > 100 µM (inactive) | > 100 µM (inactive) | > 100 µM (inactive) | > 100 µM (inactive) | > 100 µM (inactive) | > 100 µM (inactive) | > 100 µM (inactive) | > 100 µM (inactive) | > 100 µM (inactive) | > 100 µM (inactive) | > 100 µM (inactive) | > 100 µM (inactive) | > 100 µM (inactive) |  | > 100 µM (inactive) | > 100 µM (inactive) | > 100 µM (inactive)
CCOC(=O)C1=C(Nc2ccccc2)SC/C1=N\NC(=O)Cc1ccccc1 | > 100 µM (inactive) | > 100 µM (inactive) | > 100 µM (inactive) | > 100 µM (inactive) | > 100 µM (inactive) | > 100 µM (inactive) | > 100 µM (inactive) | > 100 µM (inactive) | > 100 µM (inactive) |  | > 100 µM (inactive) | > 100 µM (inactive) | > 100 µM (inactive) | > 100 µM (inactive) | > 100 µM (inactive) | > 100 µM (inactive) | > 100 µM (inactive)
COc1cc2c3c(c1OC)-c1ccccc1C(C(OC(C)=O)c1ccccc1)C3N(C)CC2 (stereo not drawn) | 74.5 µM (inactive) | 31.7 µM (inactive) | 32.8 µM (inactive) | > 100 µM (inactive) | 34.5 µM (inactive) |  | 25.7 µM (inactive) | 7.59 µM (inactive) | 33.2 µM (inactive) | 5.55 µM (inactive) | > 100 µM (inactive) | > 100 µM (inactive) | 17.2 µM (inactive) |  | > 100 µM (inactive) | 34 µM (inactive) | 34 µM (inactive)
CCOC(=O)NC(=O)c1cn(CC(=O)NCC(=O)NCC(=O)NCCCN2CCN(CCCNC(=O)CNC(=O)CNC(=O)Cn3cc(C(=O)NC(=O)OCC)c(=O)[nH]c3=O)CC2)c(=O)[nH]c1=O | > 100 µM (inactive) | > 100 µM (inactive) | > 100 µM (inactive) |  | > 100 µM (inactive) | > 100 µM (inactive) | > 100 µM (inactive) | > 100 µM (inactive) | > 100 µM (inactive) |  | > 100 µM (inactive) | > 100 µM (inactive) | > 100 µM (inactive) | > 100 µM (inactive) | > 100 µM (inactive) | > 100 µM (inactive) | > 100 µM (inactive)
CCOC(=O)[C@H]1Nc2ccc([N+](=O)[O-])cc2C2c3ccccc3CC21 (stereo partly drawn) | 19.7 µM (inactive) |  | 25.9 µM (inactive) |  | 16.7 µM (inactive) | 18.9 µM (inactive) | 29.9 µM (inactive) | 5.12 µM (inactive) | 19 µM (inactive) | 16.9 µM (inactive) | 11.2 µM (inactive) | 17.3 µM (inactive) | 31.6 µM (inactive) | 9.93 µM (inactive) | 27.4 µM (inactive) | 16.1 µM (inactive) | 12.2 µM (inactive)
COC(=O)C1CCC(C)CC1=O (stereo not drawn) | > 100 µM (inactive) | > 100 µM (inactive) | > 100 µM (inactive) | > 100 µM (inactive) | > 100 µM (inactive) | 99.8 µM (inactive) | > 100 µM (inactive) | > 100 µM (inactive) | > 100 µM (inactive) | > 100 µM (inactive) | > 100 µM (inactive) | > 100 µM (inactive) | > 100 µM (inactive) |  | > 100 µM (inactive) | > 100 µM (inactive) | > 100 µM (inactive)
COC(=O)CCCCCOS(=O)(=O)c1ccc(C)cc1 | > 100 µM (inactive) | > 100 µM (inactive) | > 100 µM (inactive) | > 100 µM (inactive) | > 100 µM (inactive) |  | > 100 µM (inactive) | 78.7 µM (inactive) | > 100 µM (inactive) |  | > 100 µM (inactive) | > 100 µM (inactive) | > 100 µM (inactive) | > 100 µM (inactive) | > 100 µM (inactive) | > 100 µM (inactive) | > 100 µM (inactive)
CC1=C(SC#N)S(=O)(=O)N(c2ccccc2)C(C)=C1SC#N | 49.4 µM (inactive) | 22.6 µM (inactive) | 40.7 µM (inactive) |  | 3.27 µM (inactive) | > 10 µM (inactive) | 60.4 µM (inactive) | 20 µM (inactive) | > 100 µM (inactive) | 28.5 µM (inactive) | 22.6 µM (inactive) | 43.3 µM (inactive) | 26.7 µM (inactive) | 24.4 µM (inactive) | > 100 µM (inactive) | 16.9 µM (inactive) | 30.1 µM (inactive)
CCOC(=O)c1nc(-c2ccccc2)oc1OCC | > 100 µM (inactive) |  | > 100 µM (inactive) | 21 µM (inactive) | > 100 µM (inactive) | > 100 µM (inactive) | > 100 µM (inactive) | 60.7 µM (inactive) |  | 92.7 µM (inactive) | > 100 µM (inactive) | > 100 µM (inactive) |  |  | > 100 µM (inactive) | > 100 µM (inactive) | > 100 µM (inactive)

Reference: ChEMBL document CHEMBL1201862, “PubChem BioAssay data set” (2004)
